These results are taken from patent US11944637B2, “Biomaterials comprising hyaluronic acid binding peptides and extracellular matrix binding peptides for hyaluronic acid retention and tissue engineering applications” (THE JOHNS HOPKINS UNIVERSITY, priority 2013, dated 2024).

The subject of one experiment is articular cartilage. Put plainly: Visualization of the HA-bound layer with biotinylated HA on cartilage covalently modified with HABPep. Type of experiment: binding, bovine. The settings on record: after washing, compared to unmodified cartilage incubated with HA-biotin alone. Here is the method: C-HABPep was conjugated to articular cartilage through a heterobifunctional poly(ethylene glycol) (PEG) spacer. Maleimide-PEG-N-hydroxysuccinimide (MAL-PEG-NHS, 3.5 kDa, Jenkem Technologies), which has functionalities that are thiol- and amine-reactive, was dissolved to 5 mM in 50 mM sodium bicarbonate, pH 7.5 and added to the articular surface. The NHS groups were allowed to react with endogenous amines on the cartilage surface for 30 minutes. PEGylation was confirmed by attenuated total reflectance Fourier transform IR spectroscopy (ATR-FTIR; Bruker Vector 22 with a Pike Miracle ATR attachment). Following thorough washes in buffer to remove unreacted crosslinker, a 1.5 mM solution of C-HABPep was added to the surface to react with maleimide groups for an additional 30 minutes. Surfaces were carefully washed to remove unreacted peptide, yielding a cartilage surface with covalently attached HA-binding functionality. Visualization of the HA-bound layer. Cartilage was conjugated with C-HABPep and incubated with biotinylated HA synthesized as previously described. Briefly, HA (975 kDa) was dissolved in 50 mM boric acid, pH 5.2 at 2 mg/ml. This was combined with biotin hydrazide (Sigma) in a 20:1 weight ratio. […] The reaction was allowed to proceed at room temperature for 16 hours, after which it was dialyzed to remove unreacted biotin hydrazide and EDC. […]

For a further experiment, the target named is collagen I (Homo sapiens, UniProt P02452+P08123). The experiment in a line: Binding of collagen binding peptides conjugated to PEG-fluorescein on a thin coating of collagen I on TCP (fluorescence). The settings on record: for Normalized fluorescence intensity on collagen I coating: after washing, FIG. 2D, 2K; for Fluorescence intensity, binding on collagen I coating: compared to control and scrambled peptide, FIG. 2C, 2J. From the text: (§1) FIGS. 2A-2K depict the clinically-relevant, non-covalent strategy, for one-step application of HA binding polymer system on tissue surface of the present invention. 2A, The first step in this strategy for coating a tissue surface is the reaction of a maleimide-PEG-NHS crosslinker with primary amines of the HA-binding peptide. Subsequently, peptides that non-covalently bind to ECM components, such as collagen I and collagen II, also having a thiol end group, is reacted to the maleimide. Finally, this polymer-peptide system of the present invention is mixed with an HA solution that binds to the peptide-polymer system, which on a single application makes a biomaterial-HA coating on the tissue surface. The binding of the collagen binding peptides were analyzed on thin coatings of collagen I and II on polystyrene tissue culture plates. A thin coating of collagen I on TCP with: 2B, i) No peptide, only PEG-fluorescein as a control, ii) scrambled collagen I binding peptide conjugated to PEG-fluorescein, iii) collagen I binding peptide conjugated to PEG-fluorescein, iv) scrambled collagen II binding peptide conjugated to PEG-fluorescein, v) collagen II binding peptide conjugated to PEG-fluorescein. […] A thin coating of collagen II on TCP with: 2G, i) No peptide, only PEG-fluorescein as a control, ii) scrambled collagen I binding peptide conjugated to PEG-fluorescein, iii) collagen I binding peptide conjugated to PEG-fluorescein, iv) scrambled collagen II binding peptide conjugated to PEG-fluorescein, v) collagen II binding peptide conjugated to PEG-fluorescein.
(§2) Second, a clinically relevant one-step injection/coating technology of the present invention was developed based on non-covalent binding of the HABpeptide-polymer system. Tissue surfaces, including, for example, articular cartilage, conjunctiva and sclera of an eye, are collagen I and II enriched, and can act as stable anchoring sites for the ECM binding peptides (ECMBPep). The HA-binding peptide that is linked to the ECMBPep through the PEG spacer can recapture HA that is lost through a physical or biological mechanism and can dynamically bind and concentrate HA where it is needed. Specifically, amine functionality of Col I and II ECMBPep were reacted with NHS-PEG-MAL followed by conjugation of C-HABPep to the Maleimide end groups. The resultant biomaterial composition of the present invention is mixed with HA and applied to tissue surfaces in a single step (FIG. 2A).

The next experiment concerns the target collagen II (Homo sapiens, UniProt P02458). The experiment in a line: Binding of collagen binding peptides conjugated to PEG-fluorescein on a thin coating of collagen II on TCP (fluorescence). The settings on record: for Normalized fluorescence intensity on collagen II coating: after washing, FIG. 2F, 2I; for Fluorescence intensity, binding on collagen II coating: compared to control and scrambled peptide, FIG. 2E, 2H.
Source text: as §1, §2

The test system of experiment [1] is normal human articular cartilage. The experiment in a line: Lubrication testing (cartilage-on-cartilage friction), normal cartilage. The procedure:
(§3) Cartilage sample preparation for lubrication testing. Cartilage samples were prepared for lubrication testing as a modification on previously published protocols (Arthritis and rheumatism 56, 882-891, (2007); Arthritis and rheumatism 50, 516-525, (2004)). Both normal and osteoarthritis tissue samples were ordered through (NDRI, Philadelphia, PA). Tissue samples were received within 24 hours post-mortem or surgery. Normal and diseased samples were received in a sterile container containing Dulbecco's Modified Eagle Medium (DMEM), and protease inhibitor cocktail. Biopsy punches were used to isolate cylindrical disks (radius=6 mm) and annuli (outer radius=4 mm, inner radius=1.5 mm) with small holes punctured through the cylinder walls to improve fluid depressurization. Due to the 24-hour time point in media washing for 24-hours to eliminate any lubricin, HA, and SAPLs; instead samples were washed for 4-6 hours in PBS on a shaker. HA sample groups were always incubated in HA solution (5 mg/mL) for 24-hours post-washing (FIGS. 4b,c). It should be noted that human cartilage was scarce especially in OA samples received.
In later experiments, covalent modification of cartilage surface by HABpep (FIG. 1) was performed on bovine articular cartilage samples. All non-covalent HABpep modification and in vitro lubrication studies were performed using human articular cartilage samples (FIG. 3). Normal human tissue was isolated from cadavers […]. Human OA cartilage samples were isolated from the patients with ages, 58 (F), 60 (F), 61 (M), 65 (M), 69 (M), 71 (F), who underwent total knee arthroplasty. Care was taken to avoid damaging the articular surface during dissection. Samples (outer diameter=8.0 mm, inner diameter=3.0 mm) were microtomed and evenly cut to obtain a flat surface. The superficial layer was maintained intact and only the deep layer of cartilage was cut to obtain a flat layer to glue to the metal counter-surface while friction measurements. Cartilage was used fresh without freezing or the addition of protease inhibitors so as not to change the surface lubrication properties. Samples were washed vigorously in PBS overnight to deplete the cartilage surface of any residual synovial fluid, after which they were functionalized with an HA-binding layer as needed and incubated at 4° C. for about 24 hours in the test lubricant. […]
(§4) Lubrication testing. […] The samples were bathed in the test lubricant, measured with digital calipers, compressed to 82% of their original combined height, and preconditioned by rotating 2 revolutions in each direction at an effective sliding velocity of 3 mm/s, which is defined as the angular velocity times the effective radius of the annulus Reff=2/3[(Ro3−Ri3)/(Ro2−Ri2)]=2.94 mm. […]

In experiment [2] the test system is human OA cartilage (severely damaged, OA stage 3-4). Put plainly: Lubrication testing (cartilage-on-cartilage friction), OA cartilage. The procedure:
as §3, with “HA sample groups were always incubated in HA solution (5 mg/mL) for 24-hours post-washing (FIGS. 4b,c). It should be noted that human cartilage was scarce especially in OA samples received.” left out
as §4

[3] abbreviates: normal cartilage without coating, tested in HA bath.
[4] abbreviates: normal cartilage, HA bath compared to PBS bath.

No end group written: not given here.

Sequence of collagen I (P02452 162-1218 limits assumed): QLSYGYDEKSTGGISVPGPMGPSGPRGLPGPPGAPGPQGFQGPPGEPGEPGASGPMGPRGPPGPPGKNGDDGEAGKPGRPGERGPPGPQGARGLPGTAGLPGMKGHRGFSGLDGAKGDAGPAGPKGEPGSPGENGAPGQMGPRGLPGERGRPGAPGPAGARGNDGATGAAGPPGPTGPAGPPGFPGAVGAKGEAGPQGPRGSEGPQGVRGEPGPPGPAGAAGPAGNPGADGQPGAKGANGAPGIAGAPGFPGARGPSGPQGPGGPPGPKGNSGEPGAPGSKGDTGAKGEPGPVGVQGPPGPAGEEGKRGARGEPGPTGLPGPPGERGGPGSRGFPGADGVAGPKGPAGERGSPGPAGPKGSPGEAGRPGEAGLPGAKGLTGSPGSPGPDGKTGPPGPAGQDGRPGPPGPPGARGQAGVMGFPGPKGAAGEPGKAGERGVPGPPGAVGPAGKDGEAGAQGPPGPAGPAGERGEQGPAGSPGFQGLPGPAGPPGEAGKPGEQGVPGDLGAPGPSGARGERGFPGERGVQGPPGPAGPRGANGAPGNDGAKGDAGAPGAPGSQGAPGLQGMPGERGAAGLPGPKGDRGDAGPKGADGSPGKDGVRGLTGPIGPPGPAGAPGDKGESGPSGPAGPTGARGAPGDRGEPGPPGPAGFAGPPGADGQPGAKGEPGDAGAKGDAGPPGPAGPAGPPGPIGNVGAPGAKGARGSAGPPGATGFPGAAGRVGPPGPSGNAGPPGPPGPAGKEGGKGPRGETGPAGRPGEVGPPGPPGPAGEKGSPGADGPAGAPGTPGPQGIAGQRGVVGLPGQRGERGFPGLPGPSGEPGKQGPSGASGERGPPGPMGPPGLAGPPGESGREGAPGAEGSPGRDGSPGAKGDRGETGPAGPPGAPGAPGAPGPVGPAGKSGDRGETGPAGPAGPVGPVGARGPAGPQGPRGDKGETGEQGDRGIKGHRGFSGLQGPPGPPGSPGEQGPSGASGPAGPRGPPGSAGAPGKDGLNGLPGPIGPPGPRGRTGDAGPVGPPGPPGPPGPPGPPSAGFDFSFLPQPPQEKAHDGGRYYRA
Sequence of collagen I (P08123 80-1119 limits assumed): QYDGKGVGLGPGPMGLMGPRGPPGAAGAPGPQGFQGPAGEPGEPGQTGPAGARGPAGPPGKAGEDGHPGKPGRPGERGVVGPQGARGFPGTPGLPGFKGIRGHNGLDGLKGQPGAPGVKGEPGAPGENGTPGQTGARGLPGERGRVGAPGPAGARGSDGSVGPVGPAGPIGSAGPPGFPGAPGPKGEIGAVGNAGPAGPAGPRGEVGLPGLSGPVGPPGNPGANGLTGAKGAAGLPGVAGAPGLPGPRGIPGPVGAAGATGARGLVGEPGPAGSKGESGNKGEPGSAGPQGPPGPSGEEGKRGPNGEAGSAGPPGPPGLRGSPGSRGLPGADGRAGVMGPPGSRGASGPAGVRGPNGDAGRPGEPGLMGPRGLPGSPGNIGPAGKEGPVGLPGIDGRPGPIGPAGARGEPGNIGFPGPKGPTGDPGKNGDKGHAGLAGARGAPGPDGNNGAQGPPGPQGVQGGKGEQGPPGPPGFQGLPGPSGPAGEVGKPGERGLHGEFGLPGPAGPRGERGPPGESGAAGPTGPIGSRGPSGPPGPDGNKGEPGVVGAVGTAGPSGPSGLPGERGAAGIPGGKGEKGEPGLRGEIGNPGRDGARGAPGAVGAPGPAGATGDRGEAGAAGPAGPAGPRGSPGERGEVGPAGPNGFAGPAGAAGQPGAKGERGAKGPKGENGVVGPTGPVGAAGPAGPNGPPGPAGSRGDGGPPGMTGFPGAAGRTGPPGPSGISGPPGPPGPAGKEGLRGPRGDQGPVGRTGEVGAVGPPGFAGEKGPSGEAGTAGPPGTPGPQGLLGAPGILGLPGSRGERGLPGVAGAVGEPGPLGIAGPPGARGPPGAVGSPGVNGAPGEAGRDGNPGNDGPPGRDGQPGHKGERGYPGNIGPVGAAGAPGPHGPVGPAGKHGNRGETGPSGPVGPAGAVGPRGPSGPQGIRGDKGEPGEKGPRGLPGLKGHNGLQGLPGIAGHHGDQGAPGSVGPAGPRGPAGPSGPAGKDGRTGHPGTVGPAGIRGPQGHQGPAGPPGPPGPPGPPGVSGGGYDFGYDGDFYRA
Sequence of collagen II (P02458 182-1241 limits assumed): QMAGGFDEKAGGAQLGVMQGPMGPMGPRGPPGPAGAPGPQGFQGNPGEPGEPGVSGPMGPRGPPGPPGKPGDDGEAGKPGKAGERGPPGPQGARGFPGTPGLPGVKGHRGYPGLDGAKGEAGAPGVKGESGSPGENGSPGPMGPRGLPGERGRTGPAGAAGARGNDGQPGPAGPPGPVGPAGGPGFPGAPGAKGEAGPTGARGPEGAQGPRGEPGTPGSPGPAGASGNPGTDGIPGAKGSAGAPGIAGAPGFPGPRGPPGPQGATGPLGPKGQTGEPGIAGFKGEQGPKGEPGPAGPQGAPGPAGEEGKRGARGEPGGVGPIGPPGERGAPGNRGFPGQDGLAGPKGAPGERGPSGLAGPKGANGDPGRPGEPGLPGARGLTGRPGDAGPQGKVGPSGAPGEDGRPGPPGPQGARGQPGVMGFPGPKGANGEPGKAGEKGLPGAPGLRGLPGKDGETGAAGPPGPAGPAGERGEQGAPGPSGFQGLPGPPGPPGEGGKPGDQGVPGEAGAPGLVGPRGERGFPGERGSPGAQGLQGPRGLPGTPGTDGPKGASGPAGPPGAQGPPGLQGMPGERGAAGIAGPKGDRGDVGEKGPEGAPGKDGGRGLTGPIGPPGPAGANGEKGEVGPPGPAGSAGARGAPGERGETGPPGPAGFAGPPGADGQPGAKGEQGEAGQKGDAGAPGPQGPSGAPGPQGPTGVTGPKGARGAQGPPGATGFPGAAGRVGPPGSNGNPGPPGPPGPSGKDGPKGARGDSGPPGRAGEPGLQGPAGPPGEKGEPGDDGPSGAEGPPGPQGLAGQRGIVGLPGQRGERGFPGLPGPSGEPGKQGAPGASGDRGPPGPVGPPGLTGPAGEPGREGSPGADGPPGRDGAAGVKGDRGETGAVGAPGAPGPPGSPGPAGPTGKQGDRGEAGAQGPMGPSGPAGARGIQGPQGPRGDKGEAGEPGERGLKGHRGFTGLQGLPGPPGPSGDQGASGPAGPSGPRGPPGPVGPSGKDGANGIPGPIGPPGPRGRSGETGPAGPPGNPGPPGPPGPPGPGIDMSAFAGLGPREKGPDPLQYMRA

In the case of “CRRDDGAHWQFNALTVR (SEQ ID NO: 2) (thiol; MAL-PEG-NHS conjugated to cartilage; listed as Homo sapiens) [HA-binding polymer coating]”, the “Staining of bound biotinylated HA (streptavidin, horseradish peroxidase)” value with articular cartilage is given as “stained darker”; with articular cartilage (listed as C-HABPep), “greater intensity of staining”.

For “WYRGRL (SEQ ID NO: 4) (also: PEG-fluorescein conjugate; listed as Homo sapiens) [collagen II binding peptide, ECMBPep for collagen II; tested conjugated to PEG-fluorescein]”, in the experiment with collagen I, the “Normalized fluorescence intensity on collagen I coating” value was “did not bind” and the “Fluorescence intensity, binding on collagen I coating” value is recorded as “no significant binding”. In addition, in the experiment with collagen II, the “Normalized fluorescence intensity on collagen II coating” value is reported as 1.65 times to that of scrambled peptide and the “Fluorescence intensity, binding on collagen II coating” value was “significant binding”.

With “YSFYSDESLQ (SEQ ID NO: 3) (also: PEG-fluorescein conjugate; listed as Homo sapiens) [collagen I binding peptide, ECMBPep for collagen I; tested conjugated to PEG-fluorescein]”, in the experiment with collagen I, the “Normalized fluorescence intensity on collagen I coating” value is given as 1.55 times to that of scrambled peptide and the “Fluorescence intensity, binding on collagen I coating” value is reported as “significant binding”. Further, in the experiment with collagen II, the “Normalized fluorescence intensity on collagen II coating” value is on record as “did not bind” and the “Fluorescence intensity, binding on collagen II coating” value is reported as “no significant binding”.

As for hyaluronic acid [HA], in experiment [1] (setting [3]), the “<μk> kinetic friction” value was 0.008 and the “<μs> static friction” value is reported as 0.018. For the same substance, in experiment [1] (setting [4]), the “decrease of kinetic total friction value” stood at 72% and the “decrease of static total friction value” amounted to 35%. Moreover, in experiment [2] (FIG. 4w), the “static lubricity value (<μ> in PBS-<μ> in HA), most severely damaged OA samples vs normal cartilage” value is recorded as “approximately 5 times”. In addition, the “kinetic lubricity value (<μ> in PBS-<μ> in HA), most severely damaged OA samples vs normal cartilage” value in experiment [2] (FIG. 4x) is recorded as “approximately 5 times”.
